Broadly, the melting point is the temperature, or range, at which the solid turns liquid. For orientation: IC50 means the concentration needed to halve the response being measured.

Each structure is given as a SMILES string. Bridge positions count the residues as written; N and C are the ends. Square brackets hold non-standard residues; d marks the D form. Peptide text beside a SMILES is read from it. Orn = NCCC[C@H](N)C(=O)O; Mpa = O=C(O)CCS

One series has as its system golden hamsters. Nature of the series: vasopressin-induced flank marking in golden hamsters. Type of series: in vivo, golden hamsters (Mesocricetus auratus). The note with it: microinjection into anterior hypothalamus as cocktail with 1 μM vasopressin; scored 10 minutes. Here is the method:
In golden hamsters, a particular stereotypy, flank marking behavior, can be induced by micro-injections of vasopressin ([…], 1-100 μM) into the anterior hypothalamus (Ferris, et al., Science, 224, 521-523 (1984); Albers and Ferris, Regulatory Peptides, 12, 257-260 (1985); Ferris et al., European Journal of Pharmacology, 154, 153-159 (1988)). Following the releasing stimulus, the behavior is initiated by grooming, licking and combing of the large sebaceous glands on the dorsolateral flanks. Bouts of flank gland grooming may be so intense that the flank region is left matted and soaked in saliva. After grooming, the hamsters display flank marking behavior, a type of scent marking involved in olfactory communication (Johnston, Physio. Behav., 51, 437-448 (1985); Ferris, et al., Physio. Behav., 40, 661-664 (1987)), by arching the back and rubbing the flank glands vigorously against any vertical surface.
All animals were adult male golden hamsters (Mesocricetus auratus) weighing approximately 160 gm. The animals underwent stereotaxic surgery, and were allowed to recover before behavioral testing. […]
The hamsters were microinjected with 1 μM vasopressin in a volume of […]. […] Animals were scored for flank marking for a period of 10 minutes in a clean cage.

Series [1] has as its target T1, human vasopressin V1a receptor (Homo sapiens, UniProt P37288).
T1 construct: expressed in transfected cells; host or cells: CHO (hV1a cell line), membrane preparation
Nature of the series: human vasopressin V1a receptor binding, [3H]PMP-AVP, hV1a (CHO) cell membranes. The conditions noted are these: [3H]PMP-AVP 0.2 nM, read-out: BINDING AFFINITY (IC50 (nM)). The procedure:
The human vasopressin V1a receptor has been cloned and expressed (Thibonnier et al., Journal of Biological Chemistry, 269, 3304-3310 (1994)). The nucleotide sequence has been deposited in the EMBL Databank under accession number Z11690.
The hV1a cell line was grown in alpha-MEM (alpha modification of Minimum essential medium Eagle, Sigma, St. Louis, Mo., USA) with 10% fetal bovine serum and 250 μg/ml G418 (Gibco, Grand Island, N.Y., USA). To prepare membranes, hV1a cells were grown to confluency in 20 roller bottles. Cells were dissociated with enzyme-free cell dissociation medium (Specialty Media, Lavallette, N.J., USA) and centrifuged at 2500 rpm for 10 minutes. The pellet was resuspended in 40 mL of Tris-HCl (tris[hydroxymethyl]aminomethane hydrochloride) buffer (50 mM, pH 7.4) and homogenized for 1 minute with a Tekmar Tissumizer (Cincinnatti, Ohio USA). The suspension was centrifuged at 40,000×g for 10 minutes. The pellet was resuspended and centrifuged as above. The final pellet was suspended in 80 mL of Tris 7.4 buffer and stored in 4 mL aliquots at −80° C. For assay, aliquots were resuspended in assay buffer and diluted to 125 μg protein per mL. Protein concentration was determined by BCA assay (Pierce, Rockford, Ill., USA).
Assay buffer was prepared by adjusting the pH of a solution of 50 mMol HEPES (N-2-Hydroxyethylpiperazine-N′-2-ethanesulfonic acid, Sigma, St. Louis, Mo., USA), 5 mMol MgCl2, and 1 mMol dithiothreitol pH 7.4 with NaOH, after which 40 μg/mL bacitracin and 10 μg/mL aprotinin were added. The radioligand for binding assays was [^3H]PMP-AVP (Manning vasopressin antagonist, 56 Ci/mMol, DuPont NEN, Boston, MA, USA). The order of additions was 195 μL assay buffer, 200 μL hV1a membranes (25 μg protein) in assay buffer, 5 μL of test agent in dimethylsulfoxide (DMSO) or DMSO alone, and 100 μL [^3H]PMP-AVP in assay buffer (final concentration 0.2 nM). Incubations were for one hour at room temperature. […] The filters were washed with ice-cold 50 mM Tris-HCl (pH 7.7 at 25° C.) and the filter circles were placed in scintillation vials, to which were then added 5 mL Ready Protein Plus scintillation fluid, and counted in a liquid scintillation counter. […] IC50 values were calculated by nonlinear least-squares curve-fitting to a 4-parameter logistic model.

The next series relates to preterm contractions. The conditions noted are these: studied clinically (Goodwin, et al., 1994); cited from earlier work.

T1 sequence (P37288 whole entry): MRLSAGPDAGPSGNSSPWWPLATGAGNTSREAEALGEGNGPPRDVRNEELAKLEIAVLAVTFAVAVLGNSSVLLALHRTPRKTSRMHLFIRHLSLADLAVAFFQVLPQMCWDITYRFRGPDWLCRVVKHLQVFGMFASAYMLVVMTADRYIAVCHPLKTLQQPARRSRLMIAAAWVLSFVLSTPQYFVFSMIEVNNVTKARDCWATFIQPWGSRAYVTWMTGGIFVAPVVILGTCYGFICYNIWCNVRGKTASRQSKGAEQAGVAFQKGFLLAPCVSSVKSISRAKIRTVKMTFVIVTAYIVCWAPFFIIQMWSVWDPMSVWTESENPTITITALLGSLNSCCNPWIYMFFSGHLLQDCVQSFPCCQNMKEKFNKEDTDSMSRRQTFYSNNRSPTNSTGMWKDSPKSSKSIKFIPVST

With `CC(C)(C)C(=O)C(C(=O)OCc1ccccc1)N1C(=O)C(N2C(=O)OCC2c2ccccc2)C1C=Cc1ccccc1` (mixture of isomers) [Example 42, Benzyl 2-(R,S)-[2,2-dimethylpropanoyl]-2-[3(S)-(4(S)-phenyloxazolidin-2-on-3-yl)-4(R)-(2-styryl)azetidin-2-on-1-yl]acetate], the “inhibition of vasopressin-induced flank marking” value in the series with golden hamsters was “inhibited vasopressin-induced flank marking in a dose dependent manner”.
Compound `CC(C)C[C@@H](C(=O)OCc1ccccc1)N1C(=O)[C@@H](N2C(=O)OC[C@@H]2c2ccccc2)[C@H]1CCc1ccccc1` [Example 28, Benzyl 2-(S)-isobutyl-2-[3(S)-(4(S)-phenyloxazolidin-2-on-3-yl)-4(R)-(2-(phenyl)-ethyl)-azetidin-2-on-1-yl]acetate] displayed a melting point of 138 to 140 °C.
`CC(C)(C)C[C@@H](C(=O)OCc1ccccc1)N1C(=O)[C@H](N2C(=O)OC[C@H]2c2ccccc2)[C@@H]1C=Cc1ccco1` [Example 27, Benzyl 2(S)-(2,2-dimethyl)propyl-2-[3(R)-(4(R)-phenyloxazolidin-2-on-3-yl)-4(S)-(1-(fur-2-yl)-ethylen-2-yl)-azetidin-2-on-1-yl]acetate] displayed a melting point of 180 °C. In addition, the IC50 in series [1] was found to be 28 nM.
For `Cc1cccc(CNC(=O)[C@H](CC(C)C)N2C(=O)[C@@H](N3C(=O)OC[C@@H]3c3ccccc3)[C@H]2/C=C/c2ccccc2)c1` [Example 112], the 50% inhibitory concentration (IC50) in series [1] came to 25 nM.
Turning to `CC1(C(C(=O)NCc2ccccc2)N2C(=O)C(N3C(=O)OCC3c3ccccc3)C2C=Cc2ccccc2)OCCO1` [Example 30, N-[Benzyl]-2-[(1,1-ethyleneketal)acetyl]-2-[3(S)-(4(S)-phenyloxazolidin-2-on-3-yl)-4(R)-(2-styryl)-azetidin-2-on-1-yl)acetamide], the melting point fell in the range of 150 to 152 °C.
For `CCC1(C(C(=O)NCc2ccccc2)N2C(=O)C(N3C(=O)OCC3c3ccccc3)C2C=Cc2ccccc2)OCCO1` [Example 31, N-[benzyl]-2-[(1,1-ethyleneketal)propionyl]-2-[3(S)-(4(S)-phenyloxazolidin-2-on-3-yl)-4(R)-(2-styryl)-azetidin-2-on-1-yl]acetamide], the concentration for half-maximal inhibition (IC50) in series [1] came to 23 nM.
In the case of `CC(C)(C)C(=O)C(C(=O)OCc1cccc(Cl)c1)N1C(=O)C(N2C(=O)OCC2c2ccccc2)C1C=Cc1ccccc1` (mixture of isomers) [Example 46, 3-Chlorobenzyl 2(R,S)-[2,2-dimethylpropanoyl]-2-[3(S)-(4(S)-phenyloxazolidin-2-on-3-yl)-4(R)-(2-styryl)-azetidin-2-on-1-yl]acetate], in series [1], the IC50 came out at 11 nM.
For `CC(C)(C)C(O)C(C(=O)N1CCC(CCN2CCCCC2)CC1)N1C(=O)[C@@H](N2C(=O)OC[C@@H]2c2ccccc2)[C@H]1C=Cc1ccccc1` (stereo partly drawn) [Example 40, 1-{2-(R,S)-[1-hydroxy-2,2-dimethylpropyl]-2-[3(S)-(4(S)-phenyloxazolidin-2-on-3-yl)-4(R)-(2-styryl)-azetidin-2-on-1-yl]acetyl}-4-(2-(piperidin-1-yl)-ethyl)piperidine], the IC50 in series [1] was 40 nM.
`CC(C)(C)C(=O)[C@H](C(=O)OCc1ccccc1)N1C(=O)[C@@H](N2C(=O)OC[C@@H]2c2ccccc2)[C@H]1C=Cc1ccco1` [Example 54A, Benzyl 2-(R)-[2,2-dimethylpropanoyl]-2-[3(S)-(4(S)-phenyloxazolidin-2-on-3-yl)-4(R)-(1-(fur-2-yl)ethylen-2-yl)-azetidin-2-on-1-yl]acetate]: the IC50 in series [1] was 2 nM.
With `CC(C)(C)C(=O)[C@@H](C(=O)OCc1ccccc1)N1C(=O)[C@@H](N2C(=O)OC[C@@H]2c2ccccc2)[C@H]1C=Cc1ccco1` [Example 54B, Benzyl 2-(S)-[2,2-dimethylpropanoyl]-2-[3(S)-(4(S)-phenyloxazolidin-2-on-3-yl)-4(R)-(1-(fur-2-yl)ethylen-2-yl)-azetidin-2-on-1-yl]acetate], the half-maximal inhibitory concentration (IC50) in series [1] is 9 nM.
On the same count and under the same terms, the result for `CCC1(C(C(=O)N2CCN(CCc3ccccc3)CC2)N2C(=O)[C@@H](N3C(=O)OC[C@@H]3c3ccccc3)[C@H]2/C=C/c2ccccc2)OCCO1` (stereo partly drawn) [Example 78] reads 16 nM; that for `COC(=O)C(N1C(=O)[C@H](N2C(=O)OC[C@H]2c2ccccc2)[C@@H]1C=Cc1ccco1)C(O)(C(=O)c1ccccc1)c1ccccc1` (mixture of isomers) [Example 39, Methyl 2-(R,S)-[1-hydroxy-1,2-diphenyl-2-oxo-ethyl]-2-[3(R)-(4(R)-phenyloxazolidin-2-on-3-yl)-4(S)-(1-(fur-2-yl)-ethylen-2-yl)-azetidin-2-on-1-yl]acetate], 13 nM; that for `CCC1(C(C(=O)NCc2cccc(C(F)(F)F)c2)N2C(=O)[C@@H](N3C(=O)OC[C@@H]3c3ccccc3)[C@H]2/C=C/c2ccccc2)OCCO1` (stereo partly drawn) [Example 67], 5 nM.
Turning to `CC(C)(C)OC(=O)C(C(=O)Cc1cccc(C(F)(F)F)c1)N1C(=O)C(N2C(=O)OCC2c2ccccc2)C1C=Cc1ccccc1` (mixture of isomers) [Example 50, tert-Butyl 2(R,S)-[3-(trifluoro)phenylacetyl]-2-[3(S)-(4(S)-phenyloxazolidin-2-on-3-yl)-4(R)-(2-styryl)-azetidin-2-on-1-yl]acetate], the melting point lay within 158 to 160 °C. Besides, the half-inhibitory concentration (IC50) in series [1] was found to be 64 nM.
Turning to `CC(C)C[C@@H](C(=O)NCc1cccc(Cl)c1)N1C(=O)[C@@H](N2C(=O)OC[C@@H]2c2ccccc2)[C@H]1/C=C/c1ccccc1` [Example 109], the IC50 in series [1] is 40 nM.
`CCOc1ccc(C[C@H]2NC(=O)CCSSC[C@@H](C(=O)N3CCC[C@H]3C(=O)N[C@@H](CCCN)C(=O)NCC(N)=O)NC(=O)[C@H](CC(N)=O)NC(=O)[C@H]([C@@H](C)O)NC(=O)[C@H]([C@@H](C)CC)NC2=O)cc1` [atosiban] ([Mpa][dY](Et)ITNCP[Orn]G-NH2; disulfide 1-6): in the series with preterm contractions, the “inhibition of preterm contractions versus placebo” value is “more significant inhibition of preterm contractions than did placebo”.
Take `CC(C)C[C@@H](C(=O)N1CCC(CCN2CCCCC2)CC1)N1C(=O)[C@@H](N2C(=O)OC[C@@H]2c2ccccc2)[C@H]1/C=C/c1ccccc1` [Example 34, 1-{2-(S)-isobutyl-2-[3(S)-(4(S)-phenyloxazolidin-2-on-3-yl)-4(R)-(2-styryl)-azetidin-2-on-1-yl]acetyl}-4-(2-(piperidin-1-yl)-ethyl)piperidine]: the half-inhibitory concentration (IC50) in series [1] was determined as 78 nM.
On the same count and under the same terms, the result for `CC(C)C[C@@H](C(=O)NCc1cccc(C(F)(F)F)c1)N1C(=O)[C@@H](N2C(=O)OC[C@@H]2c2ccccc2)[C@H]1/C=C/c1ccccc1` [Example 113] reads 41 nM; that for `CC(C)C[C@@H](C(=O)NCCCN1CCN(C)CC1)N1C(=O)[C@@H](N2C(=O)OC[C@@H]2c2ccccc2)[C@H]1/C=C/c1ccccc1` [Example 97], 42 nM.

(Values after patent publication US6521611B2 (Eli Lilly and Company, priority 1996, dated 2003).)
